Laboratory results reported in patent US20250289848A1, “PEPTIDOMIMETIC INHIBITORS OF B-CATENIN/TCF PROTEIN-PROTEIN INTERACTION” (H. LEE MOFFITT CANCER CENTER AND RESEARCH INSTITUTE, INC., priority 2018, published 2025).
Entries after “also recorded” stand apart in the source; their conditions may differ.

Experiments:
[1] = test system: TOPFlash luciferase reporter in β-catenin activated HEK293 cells; experiment: TOPFlash luciferase reporter assay; type: cell-based; settings: 24 h treatment, wild-type Tcf4 binding sites
Procedure: (§1) FuGENE 6 (E2962, Promega) in a 96-well plate format was used for the transfection of HEK293 cells according to the manufacturer's instructions. HEK293 cells were co-transfected with 45 ng of the TOPFlash or FOPFlash reporter gene, 135 ng of pcDNA3.1-p-catenin and 20 ng of pCMV-RL normalization reporter gene. Cells were cultured in DMEM and 10% fatal bovine serum at 37° C. for 24 h, and different concentrations of inhibitors were then added. After 24 h, the luciferase reporter activity was measured using the Dual-Glo system (E2940, Promega). Normalized luciferase activity in response to the treatment with the inhibitors was compared with that obtained from the cells treated with DMSO. Experiments were performed in triplicate.

[2] = test system: MDA-MB-231 cells; experiment: MTS cell viability assay, MDA-MB-231; type: cell-based; settings: Homo sapiens, MDA-MB-231, 72 h; read-out: MTs IC50 ± SD MDA-MB-231
[3] = test system: MDA-MB-468 cells; experiment: MTS cell viability assay, MDA-MB-468; type: cell-based; settings: Homo sapiens, MDA-MB-468, 72 h, read-out: MTs IC50 ± SD MDA-MB-468
[4] = test system: HCT116 cells; experiment: MTS cell viability assay, HCT116; type: cell-based; settings: Homo sapiens, HCT-116, 72 h; read-out: MTs IC50 ± SD HCT116
[5] = test system: SW480 cells; experiment: MTS cell viability assay, SW480; type: cell-based; settings: Homo sapiens, SW480, 72 h; read-out: MTs IC50 ± SD SW480
[6] = test system: A549 cells; experiment: MTS cell viability assay, A549; type: cell-based; settings: Homo sapiens, A549, 72 h; read-out: MTs IC50 ± SD A549
[7] = test system: BT-20 cells; experiment: MTS cell viability assay, BT-20; type: cell-based; settings: Homo sapiens, BT-20, 72 h; read-out: MTs IC50 ± SD BT-20
[8] = test system: FOPFlash luciferase reporter in β-catenin activated HEK293 cells; experiment: FOPFlash luciferase reporter assay; type: cell-based; settings: 24 h treatment, mutant Tcf4 binding sites
Procedure: as §1

[9] = test system: MDA-MB-231 cells; experiment: Matrigel invasion assay; type: cell-based, human; settings: 10 μM; 24 h
Procedure: Matrigel invasion assay. MDA-MB-231 cells (5×10^4) suspended in 200 p L starvation medium were added to the upper chamber of a Matrigel coated insert (6.5 mm diameter, […]; Corning 353097), and the insert was placed in a 24-well plate containing […] DMEM medium with 10% FBS. Inhibitors were added to both upper and the lower chambers. Invasion assays were performed for 24 h and cells were fixed with 3.7% formaldehyde. Cells were stained with crystal violet staining solution. The cells on the upper side of the insert were removed with a cotton swab. Five randomly selected fields (×10 objectives) on the lower side of the insert were photographed, and the invaded cells were counted.
(§2) Scratch wound healing and Matrigel invasion assays using TNBC MDA-MB-231 cells were conducted.

[10] = test system: β-catenin/E-cadherin PPI; experiment: Co-IP experiment, HCT116 cells, β-catenin/E-cadherin; settings: 24 h, concentrations sufficient to disrupt β-catenin/Tcf PPI
[11] = test system: MDA-MB-231 cells; experiment: Scratch wound healing assay; type: cell-based, human; settings: 10 μM; 10% serum; mitomycin; 14 h
Procedure: Scratch wound healing assay. To the confluent monolayer of MDA-MB-231 cells in 24-well plates, wounds will be made by scraping a sterile 200 μL pipette tip. Cells were maintained in DMEM containing 10% FBS with 10 μg/mL mitomycin to inhibit cell proliferation. Images of wounds were taken immediately and 14 h after wounding.
as §2

[12] = test system: Wnt/β-catenin hyperactive cancer cells; experiment: MTS cell viability assay, summary over cell lines; type: cell-based; settings: result in words
[13] = test system: β-catenin/Tcf PPI; type: cell-based; settings: HCT116 cells, 24 h treatment
[14] = test system: β-catenin/APC PPI; experiment: Co-IP experiment, HCT116 cells, β-catenin/APC; settings: 24 h, concentrations sufficient to disrupt β-catenin/Tcf PPI

| SMILES | TOPFlash luciferase activity (transactivation of Wnt/β-catenin signaling) [1] | IC50 [2] | IC50 [3] | IC50 [4] | IC50 [5] | IC50 [6] | IC50 [7] | FOPFlash luciferase reporter activity [8] | invasion of TNBC MDA-MB-231 cells (Matrigel) [9] | effect on the β-catenin/E-cadherin PPI (co-IP) [10] | migration of TNBC MDA-MB-231 cells (wound healing) [11] | viability of Wnt/β-catenin hyperactive cancer cells [12] | disruption of the β-catenin/Tcf PPI (co-IP) [13] | effect on the β-catenin/APC PPI (co-IP) [14] |
| --- | --- | --- | --- | --- | --- | --- | --- | --- | --- | --- | --- | --- | --- | --- |
| NC(=O)CC[C@H](NC(=O)[C@H](Cc1nn[nH]n1)NC(=O)[C@H](Cc1ccc2ccccc2c1)NC(=O)c1cc2cc(Cl)ccc2[nH]1)C(=O)Nc1ccc(OC(F)(F)F)cc1 [Compound 55, (S)-2-((S)-2-((S)-2-(5-Chloro-1H-indole-2-carboxamido)-3-(naphthalen-2-yl)propanamido)-3-(2H-tetrazol-5-yl)propanamido)-N^1-(4-(trifluoromethoxy)phenyl)pentanediamide] | inhibited | 34.3 ± 6.42 µM | 29.2 ± 4.02 µM | 63.9 ± 7.48 µM | 28.2 ± 4.63 µM | 60.3 ± 10.5 µM | 38.4 ± 3.99 µM | did not inhibit | – | – | – | – | – | – |
| CCOC(=O)CC[C@H](NC(=O)[C@H](Cc1nn[nH]n1)NC(=O)[C@H](Cc1ccc2ccccc2c1)NC(=O)c1cc2cc(Cl)ccc2[nH]1)C(=O)Nc1ccc(OC(F)(F)F)cc1 [Compound 56, Ethyl (S)-4-((S)-2-((S)-2-(5-chloro-1H-indole-2-carboxamido)-3-(naphthalen-2-yl)propanamido)-3-(2H-tetrazol-5-yl)propanamido)-5-oxo-5-((4-(trifluoromethoxy)phenyl)amino)pentanoate] | suppressed transactivation of Wnt/β-catenin signaling in dose-dependent manners; also recorded: inhibited | 12.3 ± 2.16 µM | 7.25 ± 0.72 µM | 69.4 ± 7.21 µM | 14.1 ± 2.86 µM | 86.4 ± 8.58 µM | 16.5 ± 2.23 µM | did not inhibit | selectively inhibited; also recorded: inhibited invasion; also recorded: effectively inhibit | without affecting; also recorded: had no effect | selectively inhibited; also recorded: inhibited the migration; also recorded: effectively inhibit | selectively inhibited | disrupted the β-catenin/Tcf PPI; also recorded: dose-dependently inhibited | without affecting; also recorded: had no effect |
